Test results taken from PubChem BioAssay AID2060620 (Molecular Pharmacology Branch, DTP, NCI, 2025).

Tested on: 328373-195-R-J1-PDC complex spheroids, viability % test/control
Test: Anticancer human tumor 328373-195-R-J1-PDC patient-derived head and neck squamous carcinoma cell line growth inhibition [CLK]
Details: for IC50: curve of first compound; for viability, T/C: stronger effect = lower value
Outline: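 Multi-cell-type spheroids combined patient-derived tumor cells with HUVEC endothelial cells and human mesenchymal stem cells. Paired agents were dosed in half-log steps down from about clinical Cmax, or from 10 microM where Cmax was unknown.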
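Also: spheroids exposed to the agents for 7 days.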

IC50 (second compound 0.0316 µM): 1.43 nM
IC50 (second compound 0.1 µM): < 0.949 nM
IC50 (second compound 0.316 µM): < 0.949 nM
IC50 (second compound 1 µM): < 0.949 nM
IC50 (second compound 3.16 µM): < 0.949 nM
IC50 (second compound 10 µM): < 0.949 nM
Structure (SMILES): CC(C)CC(NC(=O)C(Cc1ccccc1)NC(=O)c1cnccn1)B(O)O (configuration not stated) + CNC(=O)c1ccc(Nc2nc(OC3CCCC3)c3c(-c4ccc5nc(C)oc5c4)c[nH]c3n2)c(OC)c1
viability, T/C (second compound 0.0316 µM, first compound 0.000949 µM): 75.7%
viability, T/C (second compound 0.0316 µM, first compound 0.003 µM): 3.15%
viability, T/C (second compound 0.0316 µM, first compound 0.00949 µM): 0.27%
viability, T/C (second compound 0.0316 µM, first compound 0.03 µM): 0.18%
viability, T/C (second compound 0.0316 µM, first compound 0.0949 µM): 0.2%
viability, T/C (second compound 0.0316 µM, first compound 0.3 µM): 0.32%
viability, T/C (second compound 0.1 µM, first compound 0.000949 µM): 12.8%
viability, T/C (second compound 0.1 µM, first compound 0.003 µM): 4.91%
viability, T/C (second compound 0.1 µM, first compound 0.00949 µM): 0.98%
viability, T/C (second compound 0.1 µM, first compound 0.03 µM): 0.14%
viability, T/C (second compound 0.1 µM, first compound 0.0949 µM): 0.16%
viability, T/C (second compound 0.1 µM, first compound 0.3 µM): 1.45%
viability, T/C (second compound 0.316 µM, first compound 0.000949 µM): 10.9%
viability, T/C (second compound 0.316 µM, first compound 0.003 µM): 5.82%
viability, T/C (second compound 0.316 µM, first compound 0.00949 µM): 0.17%
viability, T/C (second compound 0.316 µM, first compound 0.03 µM): 0.11%
viability, T/C (second compound 0.316 µM, first compound 0.0949 µM): 0.14%
viability, T/C (second compound 0.316 µM, first compound 0.3 µM): 0.13%
viability, T/C (second compound 1 µM, first compound 0.000949 µM): 9.47%
viability, T/C (second compound 1 µM, first compound 0.003 µM): 4.37%
viability, T/C (second compound 1 µM, first compound 0.00949 µM): 0.14%
viability, T/C (second compound 1 µM, first compound 0.03 µM): 0.08%
viability, T/C (second compound 1 µM, first compound 0.0949 µM): 0.12%
viability, T/C (second compound 1 µM, first compound 0.3 µM): 1.52%
viability, T/C (second compound 3.16 µM, first compound 0.000949 µM): 12.4%
viability, T/C (second compound 3.16 µM, first compound 0.003 µM): 3.42%
viability, T/C (second compound 3.16 µM, first compound 0.00949 µM): 0.15%
viability, T/C (second compound 3.16 µM, first compound 0.03 µM): 0.09%
viability, T/C (second compound 3.16 µM, first compound 0.0949 µM): 0.24%
viability, T/C (second compound 3.16 µM, first compound 0.3 µM): 0.19%
viability, T/C (second compound 10 µM, first compound 0.000949 µM): 14.2%
viability, T/C (second compound 10 µM, first compound 0.003 µM): 2.54%
viability, T/C (second compound 10 µM, first compound 0.00949 µM): 0.2%
viability, T/C (second compound 10 µM, first compound 0.03 µM): 0.64%
viability, T/C (second compound 10 µM, first compound 0.0949 µM): 0.3%
viability, T/C (second compound 10 µM, first compound 0.3 µM): 0.6%
